Here are results for 17 compounds from article PMC11270734 (ACS Omega, 2024).

One series in a line: Cytotoxicity, MTT assay. In kind it is cell-based. The note with it: human, HEK-293 cells. A general note: Formazan colour is commonly taken as a measure of viable cells.
The subject of series [1] is chloroquine-sensitive P. falciparum (3D7 strain). In kind it is cell-based. Particulars: Plasmodium falciparum, 3D7, 48 h, read-out: MEAN IC50 ± SE.

In general, CC50 refers to the concentration that lowers cell viability or growth by half. High values mean better tolerance by the cells, low ones harm at low concentration. What is called IC50 is the point on the concentration scale where inhibition reaches its midpoint. The compound `CC1(c2ccc(C#N)cc2)OOC2(CCN(C(=O)c3ccccc3)CC2)OO1` [3r] had a CC50 at 72 h in the series “Cytotoxicity, MTT assay” of over 100 µg/mL. Further, the IC50 in series [1] was determined as 0.0157 ± 0.00078 µM.
Compound `CCCC1(C)OOC2(CCN(C(=O)c3ccccc3)CC2)OO1` [3g] showed a CC50 at 72 h in the series “Cytotoxicity, MTT assay” of over 100 µg/mL. In addition, the IC50 in series [1] came to 0.0434 ± 0.00238 µM.
In the same order, the values of `CC1(c2ccc(Cl)cc2)OOC2(CCN(C(=O)c3ccccc3)CC2)OO1` [3q] are over 100 µg/mL and 0.0118 ± 0.0008 µM.
`CC1(c2ccccc2)OOC2(CCN(C(=O)c3ccccc3)CC2)OO1` [3p]: in “Cytotoxicity, MTT assay”, the cytotoxic concentration (CC50) at 72 h is over 100 µg/mL. Besides, in series [1], the half-inhibitory concentration (IC50) was found to be 0.0163 ± 0.00093 µM.
In turn, `C[C@@H]1CC[C@H]2[C@@H](C)C(=O)O[C@@H]3O[C@@]4(C)CC[C@@H]1[C@]32OO4` [artemisinin, reference compound] yielded a CC50 at 72 h in the series “Cytotoxicity, MTT assay” of over 100 µg/mL.
For the compound `CC(C)C1(C)OOC2(CCN(C(=O)c3ccccc3)CC2)OO1` [3h], the CC50 at 72 h in “Cytotoxicity, MTT assay” was over 100 µg/mL. In addition, the IC50 in series [1] turned out to be 0.0413 ± 0.00233 µM.
Compound `O=C(c1ccccc1)N1CCC2(CC1)OOC1(OO2)C2CC3CC(C2)CC1C3` [3d] returned a CC50 at 72 h in “Cytotoxicity, MTT assay” of over 100 µg/mL. Also, the IC50 in series [1] was determined as 0.00728 ± 0.00057 µM.
For the compound `O=Cc1ccc(C(=O)N2CCC3(CC2)OOC2(OO3)C3CC4CC(C3)CC2C4)cc1` [3u], in the series “Cytotoxicity, MTT assay”, the CC50 at 72 h was over 100 µg/mL. For the same compound, the IC50 in series [1] worked out at 0.00635 ± 0.00055 µM.
Consider `CCC1(C)OOC2(CCN(C(=O)c3ccccc3)CC2)OO1` [3f], for which the CC50 at 72 h in “Cytotoxicity, MTT assay” was over 100 µg/mL. Also, the IC50 in series [1] was 0.0425 ± 0.00304 µM.
`O=C(c1ccccc1)N1CCC2(CC1)OOC1(CCCCCC1)OO2` [3c] gave a CC50 at 72 h in “Cytotoxicity, MTT assay” of over 100 µg/mL. For the same compound, in series [1], the IC50 came out at 0.0219 ± 0.00179 µM.
Regarding `O=C(c1ccccc1)N1CCC2(CC1)OOC1(CCCCC1)OO2` [3b], the CC50 at 72 h in the series “Cytotoxicity, MTT assay” was over 100 µg/mL. Besides, in series [1], the IC50 is 0.0179 ± 0.00196 µM.
In the series “Cytotoxicity, MTT assay”, `CCC1(CC)OOC2(CCN(C(=O)c3ccccc3)CC2)OO1` [3m] had a CC50 at 72 h of over 100 µg/mL. Moreover, in series [1], the IC50 stood at 0.0175 ± 0.00159 µM.
`CCCCC1(C)OOC2(CCN(C(=O)c3ccccc3)CC2)OO1` [3j] displayed a CC50 at 72 h in the series “Cytotoxicity, MTT assay” of over 100 µg/mL. For the same compound, in series [1], the 50% inhibitory concentration (IC50) stood at 0.0175 ± 0.00124 µM.
The compound `CCCC1(CCC)OOC2(CCN(C(=O)c3ccccc3)CC2)OO1` [3o] returned a CC50 at 72 h in “Cytotoxicity, MTT assay” of over 100 µg/mL. In addition, the 50% inhibitory concentration (IC50) in series [1] is 0.0173 ± 0.00178 µM.
`CCCCCC1(C)OOC2(CCN(C(=O)c3ccccc3)CC2)OO1` [3l] gave a CC50 at 72 h in “Cytotoxicity, MTT assay” of over 100 µg/mL. Also, in series [1], the concentration for half-maximal inhibition (IC50) stood at 0.0167 ± 0.00193 µM.
On to `CC1(C)OOC2(CCN(C(=O)c3ccccc3)CC2)OO1` [3e], for which the CC50 at 72 h in the series “Cytotoxicity, MTT assay” was over 100 µg/mL. Further, in series [1], the IC50 turned out to be 0.0299 ± 0.00128 µM.
`CC(C)CC1(C)OOC2(CCN(C(=O)c3ccccc3)CC2)OO1` [3k]: the CC50 at 72 h in the series “Cytotoxicity, MTT assay” was over 100 µg/mL. Besides, the IC50 in series [1] came to 0.0189 ± 0.00212 µM.
